In the assay the test system is hippocampal CA3 pyramidal neurons. As to the kind of experiment: Acute i.v. prucalopride on firing of hippocampal CA3 pyramidal neurons, with microiontophoresis. It is filed as in vivo, rat. The note with it: prucalopride 1000 μg/kg i.v. On the procedure: FIGS. 9A to 9D. FIGS. 9A and 9C show a typical example (integrated firing rate histogram) of the response of a single hippocampal pyramidal neuron of the CA3 sub-field to an acute, intravenous administration of the selective 5-HT4 agonist prucalopride (1000 μg/kg), and its reversal by local, microiontophoretic application of the selective 5-HT1A antagonist WAY 100635 (A), or systemic injection of the selective 5-HT4 antagonist GR 125487 (1000 μg/kg, i.v.) (C). Single-cell extracellular recordings were performed in the CA3 region of chloral-hydrate anaesthetized rats by using multiple-barrel glass microelectrodes, combined with microiontophoretic pumps (with the central barrel used for recordings). Pyramidal neurons were identified according to the classical criteria (see Example 5, experimental procedures). FIGS. 9B and 9D show a summary of the effects as for FIGS. 9A and 9C, respectively. Bar histograms represent the mean (S.E.M.) percentage effect, calculated for each neuron with respect to its basal firing rate (i.e. 100% value), and the number in each column represents the number of neurons tested. *p<0.05 vs basal value, one-way ANOVA.
Microiontophoresis and extracellular recordings from hippocampal CA3 pyramidal neurons. Recording and microiontophoresis were performed with five-barreled glass micropipettes broken back to 8-12 μm under microscope control. The central barrel was filled with the same solution as in the DRN and was used for extracellular unitary recordings. Pyramidal neurons were identified by their large amplitude (0.5-1.2 mV) and long-duration (0.8-1.2 ms) simple spikes alternating with complex spike discharges (Kandel and Spencer, 1961). The side barrels contained the following solutions: quisqualate (1.5 mM in 200 mM NaCl, pH 8), WAY 100635 (15 mM in 200 mM NaCl, pH 4), and 2 M NaCl used for automatic current balancing. Rats were mounted in the stereotaxic apparatus and the micropipettes were lowered at 4.2 mm lateral and 4.2 anterior to lambda into the CA3 sub-region of the dorsal hippocampus.
Involvement of endogenous 5-HT and hippocampal 5-HT1A receptors in the effect of 5-HT4 agonists. […] This interpretation is consistent with our own previous findings, showing that both acute and chronic (3-day) administration of the same compounds augment DRN 5-HT neuronal firing activity (Lucas and Debonnel, 2002; Lucas et al., 2005). It is also in keeping with observations from a single in vivo microdialysis study, where acute systemic injection of preferential 5-HT4 agonists increased hippocampal 5-HT efflux (Ge and Barnes, 1996). To further address this possibility, two additional series of experiments were conducted. First, the role of endogenous 5-HT was assessed by using the same protocol as above, in rats co-treated with RS 67333 (or its vehicle) and the 5-HT depleter para-chlorophenylalanine (pCPA). […] The ejection currents of quisqualate needed to activate CA3 pyramidal neurons were, in this case, similar to those used in controls (0 to −2 nA, FIG. 8C). We then tested the ability of a local application of WAY 100635, directly into the CA3 subfield through the use of microiontophoresis, to modify the effect of a 5-HT4 agonist. We chose not to use the previous protocol (i.e. chronic treatments), because, as shown above, the required quisqualate currents differ between the experimental groups. Even though all currents were balanced, it was not possible to exclude the possibility that the amount of quisqualate present in the vicinity of the electrode may have an influence on the quantity of WAY 100635 actually ejected, and/or on its ability to act on pyramidal neurons. For this reason, prucalopride was used acutely in naïve rats, at a dose known to induce a significant augmentation of DRN 5-HT neuronal activity (1000 μg/kg, i.v.) (Lucas and Debonnel, 2002). […]

In general, inhibition refers to the share of the control response that was lost under treatment. Low readings indicate little suppression, high ones strong suppression.

Under “Rattus norvegicus, Pyramidal neuron, iv, Discussion”, `COCCCN1CCC(NC(=O)c2cc(Cl)c(N)c3c2OCC3)CC1` [prucalopride] had an inhibition at 1 mg/kg of roughly 50%. Under “naïve rats, the 17 inhibited neurons”, the “discharge of inhibited CA3 pyramidal neurons” value was 46 (±5.6) % of pre-drug values. The “share of recorded pyramidal neurons inhibited” value (17 of 38 neurons) was 45 % of total.

Values taken from patent US20090170899A1, “Stimulators of 5-HT4 receptors and uses thereof” (priority 2004, published 2009).
